According to patent US12110276B2 (Genentech, Inc., priority 2021, dated 2024):

How the values were obtained:
TEAD4 = TEAD4 (Homo sapiens (Human), UniProt Q15561); test: TR-FRET lipid pocket probe competition assay (Lipid HTRF), TEAD4; type: binding; conditions: 4 hours pre-incubation; read-out: Lipid HTRF TEAD4 IC50;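 further: His-tagged TEAD4 with biotinylated lipid-pocket probe, read by Europium anti-His and XL665 streptavidin, where probe displacement lowers the TR-FRET signal, IC50 from a four-parameter fit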
Procedure: (§1) His-tagged TEAD proteins are pre-incubated with TEAD project compounds for 30 minutes or 4 hours at room temperature. Biotinylated lipid pocket probes are then added to the TEAD/Compound mixture and incubated for 60 minutes at room temperature. The lipid pocket probe competes with the test compound for the TEAD lipid pocket until equilibrium is reached. After 60 minutes, Europium labelled anti-His (Perkin Elmer #AD0110) and XL665 labelled streptavidin (CIS Bio 610SAXAC) are added to the TEAD/test compound/lipid pocket mixture and incubated for 30 minutes or 4 hours. […] If a TEAD lipid pocket binder such as binds and displaces the lipid pocket probe, the disruption of the TEAD:probe interaction results in a decrease in TR-FRET signal. The potency of compounds as TEAD lipid pocket binders is determined by IC50 value generated using a non-linear 4 parameter curve fit.

TEAD3 = TEAD3 (Homo sapiens (Human), UniProt Q99594); test: TR-FRET lipid pocket probe competition assay (Lipid HTRF), TEAD3; type: binding; conditions: 4 hours pre-incubation; read-out: Lipid HTRF TEAD3 IC50
TEAD2 = TEAD2 (Homo sapiens (Human), UniProt Q15562);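 further: TR-FRET competition assay with His-tagged TEAD protein and a biotinylated lipid pocket probe, compound pre-incubated 30 min or 4 h at room temperature, displacement lowers signal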
TEAD1 = TEAD1 (Homo sapiens (Human), UniProt P28347); test: TR-FRET lipid pocket probe competition assay (Lipid HTRF), TEAD1; type: binding; conditions: 4 hours pre-incubation; read-out: Lipid HTRF TEAD1 IC50;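 further: His-tagged TEAD1 with biotinylated probe, detected via Europium anti-His and XL665 streptavidin, probe displacement lowers TR-FRET signal, IC50 from four-parameter nonlinear fit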
TEAD1, sequence (P28347 whole entry, species assumed): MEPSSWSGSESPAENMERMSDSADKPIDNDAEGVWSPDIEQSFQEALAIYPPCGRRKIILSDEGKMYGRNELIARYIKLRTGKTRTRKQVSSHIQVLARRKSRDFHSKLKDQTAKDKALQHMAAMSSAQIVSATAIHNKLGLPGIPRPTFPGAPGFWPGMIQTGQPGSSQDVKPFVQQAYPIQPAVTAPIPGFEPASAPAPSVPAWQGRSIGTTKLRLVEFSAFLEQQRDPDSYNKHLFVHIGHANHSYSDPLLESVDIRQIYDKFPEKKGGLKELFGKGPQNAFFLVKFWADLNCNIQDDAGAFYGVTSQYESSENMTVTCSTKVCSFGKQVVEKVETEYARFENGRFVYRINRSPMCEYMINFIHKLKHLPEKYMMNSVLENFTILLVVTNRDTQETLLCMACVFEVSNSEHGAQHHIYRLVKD
Procedure: as §1

TEAD2, sequence (Q15562 whole entry, species assumed): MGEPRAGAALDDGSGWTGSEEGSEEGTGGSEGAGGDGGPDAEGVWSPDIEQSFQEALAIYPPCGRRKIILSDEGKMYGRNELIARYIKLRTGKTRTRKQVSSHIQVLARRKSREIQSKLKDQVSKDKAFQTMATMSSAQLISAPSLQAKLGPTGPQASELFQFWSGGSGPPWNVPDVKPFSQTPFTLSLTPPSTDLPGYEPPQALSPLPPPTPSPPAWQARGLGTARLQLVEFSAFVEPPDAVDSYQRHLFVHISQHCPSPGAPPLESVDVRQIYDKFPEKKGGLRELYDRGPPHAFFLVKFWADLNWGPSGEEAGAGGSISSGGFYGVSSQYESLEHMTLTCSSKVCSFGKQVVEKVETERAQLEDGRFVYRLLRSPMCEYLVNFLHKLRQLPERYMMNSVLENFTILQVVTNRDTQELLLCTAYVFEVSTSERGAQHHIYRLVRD
TEAD3, sequence (Q99594 whole entry, species assumed): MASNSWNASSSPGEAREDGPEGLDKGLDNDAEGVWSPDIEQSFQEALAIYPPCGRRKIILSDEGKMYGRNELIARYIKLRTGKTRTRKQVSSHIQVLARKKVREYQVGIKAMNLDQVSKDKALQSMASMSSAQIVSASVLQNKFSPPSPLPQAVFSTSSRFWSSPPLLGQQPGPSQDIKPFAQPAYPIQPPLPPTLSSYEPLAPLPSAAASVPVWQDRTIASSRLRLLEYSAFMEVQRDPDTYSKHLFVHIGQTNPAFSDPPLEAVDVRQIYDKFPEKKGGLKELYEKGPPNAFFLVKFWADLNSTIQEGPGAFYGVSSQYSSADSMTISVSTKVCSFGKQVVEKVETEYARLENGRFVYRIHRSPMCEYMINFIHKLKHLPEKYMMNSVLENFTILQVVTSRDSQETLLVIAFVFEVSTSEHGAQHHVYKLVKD
TEAD4, sequence (Q15561 whole entry, species assumed): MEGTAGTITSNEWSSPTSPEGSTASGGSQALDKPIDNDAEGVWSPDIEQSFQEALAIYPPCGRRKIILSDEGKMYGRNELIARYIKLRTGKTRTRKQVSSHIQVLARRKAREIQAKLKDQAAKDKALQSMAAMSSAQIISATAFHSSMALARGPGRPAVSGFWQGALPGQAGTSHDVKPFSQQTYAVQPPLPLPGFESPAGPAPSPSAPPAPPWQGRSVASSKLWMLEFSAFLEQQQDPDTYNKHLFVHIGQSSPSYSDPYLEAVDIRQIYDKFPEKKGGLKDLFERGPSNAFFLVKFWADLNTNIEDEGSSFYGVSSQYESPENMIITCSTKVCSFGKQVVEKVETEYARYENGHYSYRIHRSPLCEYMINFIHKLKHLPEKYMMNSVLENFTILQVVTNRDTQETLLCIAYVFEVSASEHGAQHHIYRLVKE

Structure (SMILES) | IC50 (TEAD4) [nM] | IC50 (TEAD3) [nM] | IC50 (TEAD2) [nM] | IC50 (TEAD1) [nM]
C=C(F)C(=O)N1CC(c2nn(-c3ccc(OC(F)(F)F)cc3)c3nccc(N4CC[C@H](O)C4=O)c23)C1 [Compound 82, (S)-1-(3-(1-(2-fluoroacryloyl)azetidin-3-yl)-1-(4-(trifluoromethoxy)phenyl)-1H-pyrazolo[3,4-b]pyridin-4-yl)-3-hydroxypyrrolidin-2-one] | 4.8 | 270 | 390 | 31
C=C(F)C(=O)N1CC(c2nn(-c3ccc(OC(F)(F)F)cc3)c3nccc(N4CC(O)C4)c23)C1 [Compound 81, 2-Fluoro-1-(3-(4-(3-hydroxyazetidin-1-yl)-1-(4-(trifluoromethoxy)phenyl)-1H-pyrazolo[3,4-b]pyridin-3-yl)azetidin-1-yl)prop-2-en-1-one] | 11 | 240 | 24 | 32
C=CC(=O)N(C)Cc1nn(-c2ccc(OC(F)(F)F)cc2)c2nccc([C@H](O)CO)c12 [Compound 139, (S)-N-((4-(1,2-Dihydroxyethyl)-1-(4-(trifluoromethoxy)phenyl)-1H-pyrazolo[3,4-b]pyridin-3-yl)methyl)-N-methylacrylamide] | 12 | 600 | 26 | 31
O=C(/C=C\Cl)NCc1nn(-c2ccc(OC(F)(F)F)cc2)c2nccc(CO)c12 [Compound 99, (Z)-3-Chloro-N-((4-(hydroxymethyl)-1-(4-(trifluoromethoxy)phenyl)-1H-pyrazolo[3,4-b]pyridin-3-yl)methyl)acrylamide] | 5 | 87 | 28 | 3.3
C=CC(=O)NCc1nn(-c2ccc(S(F)(F)(F)(F)F)cc2)c2ccccc12 [Compound 3, N-((1-(4-(pentafluoro-λ^6-sulfanyl)phenyl)-1H-indazol-3-yl)methyl)acrylamide] | 7.9 | 210 | 250 | 7
C=CC(=O)NCc1nn(-c2ccc(OC(F)(F)F)cc2)c2ncccc12 [Compound 188, N-((1-(4-(trifluoromethoxy)phenyl)-1H-pyrazolo[3,4-b]pyridin-3-yl)methyl)acrylamide] | 7.3 | 150 | 84 | 7.2
C=CC(=O)NCc1nn(-c2ccc(OC(F)(F)F)cc2)c2nccc(-c3c[nH]cn3)c12 [Compound 119, N-((4-(1H-Imidazol-4-yl)-1-(4-(trifluoromethoxy)phenyl)-1H-pyrazolo[3,4-b]pyridin-3-yl)methyl)acrylamide] | 110 | 550 | 250 | 160
C=CC(=O)NCc1nn(-c2ccc(OC(F)(F)F)cc2)c2nccc(N3CC(F)C3)c12 [Compound 84, N-((4-(3-Fluoroazetidin-1-yl)-1-(4-(trifluoromethoxy)phenyl)-1H-pyrazolo[3,4-b]pyridin-3-yl)methyl)acrylamide] | 6.3 | 50000 | 89 | 23
C[C@H](O)/C=C/C(=O)N1CC(c2nn(-c3ccc(OC(F)(F)F)cc3)c3nccc(CO)c23)C1 [Compound 97, (S,E)-4-hydroxy-1-(3-(4-(hydroxymethyl)-1-(4-(trifluoromethoxy)phenyl)-1H-pyrazolo[3,4-b]pyridin-3-yl)azetidin-1-yl)pent-2-en-1-one] | 58 | 570 | 520 | 78
C=C(F)C(=O)N1CC(c2nn(-c3ccc(OC(F)(F)F)cc3)c3ccnc(N4CC(O)C4)c23)C1 [Compound 78, 2-fluoro-1-(3-(4-(3-hydroxyazetidin-1-yl)-1-(4-(trifluoromethoxy)phenyl)-1H-pyrazolo[4,3-c]pyridin-3-yl)azetidin-1-yl)prop-2-en-1-one] | 150 | 13000 | 2800 | 180
C=CC(=O)NCc1nn(-c2ccc(OC(F)(F)F)cc2)c2nccc(N3CC(C#N)C3)c12 [Compound 52, N-((4-(3-Cyanoazetidin-1-yl)-1-(4-(trifluoromethoxy)phenyl)-1H-pyrazolo[3,4-b]pyridin-3-yl)methyl)acrylamide] | 3.4 | 3500 | 45 | 14
O=C(/C=C/CO)N1CC(c2nn(-c3ccc(OC(F)(F)F)cc3)c3ccnc(N4CC(O)C4)c23)C1 [Compound 103, (E)-4-hydroxy-1-(3-(4-(3-hydroxyazetidin-1-yl)-1-(4-(trifluoromethoxy)phenyl)-1H-pyrazolo[4,3-c]pyridin-3-yl)azetidin-1-yl)but-2-en-1-one] | 82.5 | 50000 | 3350 | 180
C=CC(=O)NCc1nn(-c2ccc(S(F)(F)(F)(F)F)cc2)c2cccc(CO)c12 [Compound 5, N-((4-(hydroxymethyl)-1-(4-(pentafluoro-λ^6-sulfanyl)phenyl)-1H-indazol-3-yl)methyl)acrylamide] | 37 | 270 | 310 | 17
C=CC(=O)NCc1nn(-c2ccc(OC(F)(F)F)cc2)c2nccc(C(=O)NC)c12 [Compound 30, 3-(Acrylamidomethyl)-N-methyl-1-(4-(trifluoromethoxy)phenyl)-1H-pyrazolo[3,4-b]pyridine-4-carboxamide] | 180 | 2600 | 1500 | 490
C=CC(=O)NCc1nn(-c2ccc(OC(F)(F)F)cc2)c2cccc(CO)c12 [Compound 4, N-((4-(hydroxymethyl)-1-(4-(trifluoromethoxy)phenyl)-1H-indazol-3-yl)methyl)acrylamide] | 59 | 270 | 140 | 23
C=CC(=O)NCc1nn(-c2ccc(OC(F)(F)F)cc2)c2nccc(CO)c12 [Compound 32, N-((4-(Hydroxymethyl)-1-(4-(trifluoromethoxy)phenyl)-1H-pyrazolo[3,4-b]pyridin-3-yl)methyl)acrylamide] | 25 | 220 | 57 | 13
N#Cc1ccnc2c1c(C1CN(C(=O)/C=C/CO)C1)nn2-c1ccc(OC(F)(F)F)cc1 [Compound 79] | 6.8 | 20 | 60 | 19
C=C(F)C(=O)N1CC(c2nn(-c3ccc(OC(F)(F)F)cc3)c3nccc(C#N)c23)C1 [Compound 80, 3-(1-(2-fluoroacryloyl)azetidin-3-yl)-1-(4-(trifluoromethoxy)phenyl)-1H-pyrazolo[3,4-b]pyridine-4-carbonitrile] | 16 | 29 | 68 | 18
C=CC(=O)NCc1nn(-c2ccc(OC(F)(F)F)cc2)c2nccc(N3CC[C@@H](O)C3)c12 [Compound 47, (R)-N-((4-(3-hydroxypyrrolidin-1-yl)-1-(4-(trifluoromethoxy)phenyl)-1H-pyrazolo[3,4-b]pyridin-3-yl)methyl)acrylamide] | 11 | 2000 | 100 | 33
C=CC(=O)NCc1nn(-c2ccc(OC(F)(F)F)cc2)c2nccc(N3CC(N(C)C)C3)c12 [Compound 107, N-((4-(3-(dimethylamino)azetidin-1-yl)-1-(4-(trifluoromethoxy)phenyl)-1H-pyrazolo[3,4-b]pyridin-3-yl)methyl)acrylamide] | 36 | 50000 | 960 | 280
C=CC(=O)NCc1nn(-c2ccc(OC(F)(F)F)cc2)c2nccc(N3CC(NC(C)=O)C3)c12 [Compound 116, N-((4-(3-acetamidoazetidin-1-yl)-1-(4-(trifluoromethoxy)phenyl)-1H-pyrazolo[3,4-b]pyridin-3-yl)methyl)acrylamide] | 11 | 14000 | 75 | 27
C=CC(=O)N1CC(c2nn(-c3ccc(OC(F)(F)F)cc3)c3nccc([C@@H](O)CO)c23)C1 [Compound 114, (R)-1-(3-(4-(1,2-Dihydroxyethyl)-1-(4-(trifluoromethoxy)phenyl)-1H-pyrazolo[3,4-b]pyridin-3-yl)azetidin-1-yl)prop-2-en-1-one] | 2.9 | 16 | 4.6 | 14
CC#CC(=O)N1CC(c2nn(-c3ccc(OC(F)(F)F)cc3)c3nccc([C@H](O)CO)c23)C1 [Compound 129, (S)-1-(3-(4-(1,2-Dihydroxyethyl)-1-(4-(trifluoromethoxy)phenyl)-1H-pyrazolo[3,4-b]pyridin-3-yl)azetidin-1-yl)but-2-yn-1-one] | 43 | 200 | 20 | 110
C=CC(=O)NCc1nn(-c2ccc(OC(F)(F)F)cc2)c2nccc(C(C)(C)O)c12 [Compound 135, N-((4-(2-Hydroxypropan-2-yl)-1-(4-(trifluoromethoxy)phenyl)-1H-pyrazolo[3,4-b]pyridin-3-yl)methyl)acrylamide] | 99 | 34000 | 68 | 390
C=CC(=O)NCc1nn(-c2ccc(S(F)(F)(F)(F)F)cc2)c2cccc(C#N)c12 [Compound 14, N-((4-cyano-1-(4-(pentafluoro-λ^6-sulfanyl)phenyl)-1H-indazol-3-yl)methyl)acrylamide] | 33 | 140 | 50000 | 84
C/C=C/C(=O)N1CC(c2nn(-c3ccc(OC(F)(F)F)cc3)c3nccc(CO)c23)C1 [Compound 120, (E)-1-(3-(4-(Hydroxymethyl)-1-(4-(trifluoromethoxy)phenyl)-1H-pyrazolo[3,4-b]pyridin-3-yl)azetidin-1-yl)but-2-en-1-one] | 55 | 270 | 160 | 27
